Reference: patent US11622964B2, “Method for destroying cellular mechanical homeostasis and promoting regeneration and repair of tissues and organs, and use thereof” (INSTITUTE OF ZOOLOGY, CHINESE ACADEMY OF SCIENCES, priority 2018, dated 2023)
Blank lines part the entries; values can stand above or below the compound they belong to.

Tests used:
[1] = test system: mouse embryonic fibroblasts (MEFs); experiment: TGF-β1-induced transformation of mouse embryonic fibroblasts into myofibroblasts; format: cell-based; conditions: S-Bleb-OB 20 μM; for stretched state / fibrous morphology of MEFs: compared with DMSO; for TGF-β1-induced myofibroblast activation: scheme as Example 9-1
Excerpt: In this example, cell models for in vitro fibrosis are respectively built to activate mouse hepatic stellate Cells (mHSCs, FIG. 13(B)), mouse embryonic fibroblasts (MEFs FIG. 13(C)), mouse adult liver, lung, and heart-derived primary mesenchymal cells (priMCs, FIG. 13(D)), and human hepatic stellate cells (hLX-2, FIG. 13(E)) into myofibroblasts through the induction of TGF-β1. The specific experimental procedure is as shown in FIG. 9A: a medium containing 10% serum is used for the initial cell culture; after 24 hours the medium is replaced with low serum medium (or pre-starvation treatment for 16 hours) while adding 3 ng/ml TGF-β1 with DMSO or Bleb (20 μM); after 7 days the expression of myofibroblast activation marker protein (Acta2), collagen (Col1a1, Col1a2, Col3a1, and Col1a2), and matrix metalloproteinases and inhibitors (collagenases: MmP8, and MmP13; gelatinases: MmP2, and MmP9; a metalloproteinase inhibitor: Timp1/2/3) are identified.

adult hepatocytes = experiment: In vitro amplification of adult hepatocytes; format: cell-based, human; conditions: for number of cells: after 6 days of culture
Method: Resuscitation and Culture of Adult Hepatocytes: adult hepatocytes ([…] […] human, Bioreclamation IVT) are taken out from the liquid nitrogen tank, quickly placing in a 37° C. water bath, after melting the cells are added to 5 ml of 37° C. pre-warmed hepatocyte inoculation medium (In VitroGRO CP Medium), then inoculating at 9×10^4/well in 24-well plate after counting, 2-4 hours after hepatocyte adherence, the hepatocyte inoculation medium is sucked and discarded, then respectively adding control medium for hepatocyte culture, 10 μm small molecule medium, and 20 μm small molecule medium; changing the medium every 2 days. The number of cells is estimated from the photograph on day 2. After 4 days, the 20 μm small molecule medium group is changed to culture the cells in 10 μm small molecule medium. After co-culturing for 6 days the cells are counted. A portion of the cells are taken for RNA extraction so as to detect the expression of human hepatocyte-specific genes. Passage of Adult Hepatocytes: 4.7×10^4 hepatocytes cultured in the above control group, and 8×10^4 hepatocytes cultured in 10 μm small molecule medium are respectively re-inoculated into 24-well plate coated with rat tail collagen, changing the medium every two days and culturing for 6 days, photographs are taken to record the growth of the cells. Induction of CYP1A2 in Adult Hepatocytes Amplified by Small Molecule Medium: 3×10^5 hepatocytes are inoculated in 24-well plate coated with rat tail collagen, after culturing in 10 μm small molecule medium for 24 hours, the medium is replaced with 10 μm small molecule medium containing 50 μm omeprazole, and in the control group the cells are cultured in 10 μm small molecule medium containing DMSO; 48 hours later, the cells are collected to detect the expression of the CYP1A2 gene.

Compound: Cc1ccc2c(c1)C(=O)[C@@]1(O)CCN(c3ccccc3)C1=N2 [R-Bleb, (R)-(+)-blebbistatin]
stretched state / fibrous morphology of MEFs [1]: does not affect the fibrous morphology
TGF-β1-induced myofibroblast activation [1]: no inhibitory effect

Compound: Cc1ccc2c(c1)C(=O)[C@]1(OC(=O)c3ccccc3)CCN(c3ccccc3)C1=N2 [S-Bleb-OB, (−)-blebbistatin o-benzoate]
stretched state / fibrous morphology of MEFs [1]: may destroy the stretched state
TGF-β1-induced myofibroblast activation [1]: capable of inhibiting

expression of CYP1A2 gene after induction (adult hepatocytes; 50 μm omeprazole, 48 hours, subcultured adult hepatocytes in 10 μm small molecule medium): increase
Compound: COc1ccc2[nH]c([S+]([O-])Cc3ncc(C)c(OC)c3C)nc2c1 (stereo not drawn) [omeprazole]

amplification effect on adult hepatocytes (cell number day 6 / day 2) (adult hepatocytes): significant amplification effect
expression of human hepatocyte specific genes ALBUMIN, AFP, CYP1A2, CYP3A4 (adult hepatocytes): still express
subculture of human hepatocytes (adult hepatocytes): can subculture human hepatocytes
Compound: (−)-blebbistatin
number of cells (adult hepatocytes; 10 μm group): 6.47×10^4 (SD=1.24)
number of cells (adult hepatocytes; # group (20 μm for 4 days, then 10 μm for 2 days)): 9.47×10^4 (SD=0.98)
expression of proliferating cell nuclear antigen (PCNA) gene (adult hepatocytes; vs control group): significantly higher

Compound: (−)-blebbistatin o-benzoate [S-Bleb-OB]
TGF-β1-induced myofibroblast activation [1]: have an inhibitory effect
